Results reported in patent EP4803512A1, “COMPOUND CAPABLE OF INHIBITING CONNEXIN-ASSOCIATED KINASE 1, PREPARATION, AND USE THEREOF” (Xizang Haisco Pharmaceutical Co., Ltd., priority 2023, dated 2025).
pIC50: −log10 of the molar value.

Key:
PC12 cells = conditions: cited from earlier work
[1] = cited from earlier work
[2] = mice; cited from earlier work
[3] = cited from earlier work; remark: listed apart in the source
[4] = mice; cited from earlier work; remark: listed apart in the source
[5] = Liver microsomal stability assay, rat liver microsomal model; type: in vitro ADME; conditions: rat liver microsomes, 1 µM, 37°C, NADPH
Procedure: In this experiment, liver microsomes of five species, including human, monkey, dog, rat and mouse, were used as in vitro models to evaluate the metabolic stability of the test compound.
At 37°C, 1 µM of the test compound was co-incubated with microsomal protein and coenzyme NADPH. At given time points of the reaction (5 min, 10 min, 20 min, 30 min, and 60 min), the reaction was terminated by adding ice-cold acetonitrile containing an internal standard. The LC-MS/MS method was used to measure the concentration of the test compound in the sample. T1/2 was calculated using the ln value of the percentage of drug remaining in the incubation system and the incubation time. In addition, the intrinsic clearance in liver microsomes CLint(mic) and the intrinsic clearance in liver CLint(Liver) were further calculated. Table 7 Results of test compounds in rat liver microsomal model

hERG potassium channel = molecular target: T1, hERG potassium channel (Homo sapiens, UniProt Q12809); assay: hERG potassium channel activity assay, manual whole-cell patch clamp; type: cell-based; conditions: IC50, inhibition of hERG potassium channel current, CHO cells stably expressing hERG
T1 construct: expressed in transfected cells
Source text: 2.1 Experimental preparation: Experimental platform: manual electrophysiological patch-clamp system; Cell line: Chinese hamster ovary (CHO) cell line stably expressing hERG potassium channel.
2.2. Experimental method: In Chinese Hamster Ovary (CHO) cells stably expressing hERG potassium channel, the whole-cell patch-clamp technique was used to record hERG potassium channel current at room temperature. The glass microelectrodes were pulled from glass electrode blanks (BF150-86-10, Sutter) by a glass microelectrode puller. The tip resistance of the microelectrodes after being filled with intrapipette solution was about 2-5 MΩ. The glass microelectrodes were connected to the patch-clamp amplifier by inserting them into an amplifier probe. The clamping voltage and data recording were controlled and recorded by the pClamp 10 software through a computer, with a sampling frequency of 10 kHz and a filtering frequency of 2 kHz. After the whole cell records were obtained, the cells were clamped at -80 mV, and the step voltage that induced the hERG potassium current (I hERG) was depolarised from -80 mV to +20 mV for 2 s, then repolarised to -50 mV, and returned to -80 mV after 1 s. […]
Compound IC50 was calculated using GraphPad Prism 5 software by fitting according to the following equation: Y = Bottom + (Top−Bottom)/(1+10^(∧)((LogIC50−X)×HillSlope)) [formula] […]

AAK1 = molecular target: T2, AAK1 (Homo sapiens, UniProt Q2M2I8); assay: In vitro AAK1 enzyme activity assay (ADP-Glo); type: biochemical; conditions: inhibitory activity against AAK1
T2 construct: purchased Signalchem A01-11G-10
Procedure: Compound stock solution (concentration: 10 mM, dissolved in DMSO) was diluted with DMSO to 0.2 mM and then diluted with DMSO in 5-fold gradient to obtain compound solutions with 10 concentrations. Subsequently, the compound solutions with different concentrations were diluted 50-fold in 1× kinase reaction buffer (containing 40 mM Tris, 20 mM MgCl2, 0.1% BSA and 0.5 mM DTT) for later use. AAK1 (Signalchem, Cat# A01-11G-10) was diluted with 1× kinase reaction buffer to 2-fold the final concentration (final concentrations: 30 nM and 28 nM). AAK1 was added to a 384-well white plate at 2 µL/well, and the compounds were then added at 1 µL/well. The plate was sealed with a plate-sealing film, centrifuged at 1000 rpm for 30 seconds and then placed at room temperature for 10 minutes. […] The RLU (Relative luminescence unit) signal values were read using a Biotek multimode microplate reader, and the percent inhibition was calculated according to the following formula: [1-(LUM compound-LUM positive control) / (LUM negative control-LUM positive control)] × 100. IC50 values were calculated using Graphpad 7.0 software using a four-parameter non-linear fit equation. […]

[6] = Pharmacokinetic assay in mice; type: in vivo, ICR mice; conditions: plasma
Procedure: 3.1 Experimental animals: Male ICR mice, 20-25 g, 6 mice/compound, purchased from Chengdu Dossy Experimental Animals Co., Ltd.
3.2 Experimental design: on the day of the experiment, the ICR mice were randomly grouped according to their body weights. The animals were fasted with water available for 12-14 h one day before the administration, and were fed 4 h after the administration. Table 3 Administration information
vehicle for intravenous administration: 5%DMA+5%HS-15+90%NS; vehicle for intragastric administration: 0.5% MC; before and after administration, 0.06 mL of blood was taken from the orbit under isoflurane anaesthesia and placed in an EDTAK2 centrifuge tube. The tube was centrifuged at 5000 rpm at 4°C for 10 min, and plasma was collected. The blood sampling time points for both the intravenous administration group and intragastric administration group were 0, 5 min, 15 min, 30 min, 1 h, 2 h, 4 h, 7 h and 24 h. Before analysis and detection, all samples were stored at -80°C, and the samples were quantitatively analysed by LC-MS/MS. Table 4 Pharmacokinetic parameters of test compounds in plasma of mice

[7] = Pharmacokinetic assay in rats; type: in vivo, SD rats; conditions: rat, po, plasma, Intragastric administration (5 mg/kg)
Procedure: 4.1 Experimental animals: Male SD rats, about 220 g, 6-8 weeks old, 6 rats/compound, purchased from Chengdu Dossy Experimental Animals Co., Ltd.
4.2 Experimental design: on the day of the experiment, 6 SD rats were randomly grouped according to their body weights. The animals were fasted with water available for 12-14 h one day before the administration, and were fed 4 h after the administration. Table 5 Administration information
Before and after the administration, 0.1 ml of blood was taken from the orbit under isoflurane anaesthesia and placed in an EDTAK2 centrifuge tube. The tube was centrifuged at 5000 rpm at 4°C for 10 min, and plasma was collected. Blood sampling time points for the intravenous administration group: 0, 5 min, 15 min, 30 min, 1 h, 2 h, 4 h, 6 h, 8 h and 24 h; blood sampling time points for the intragastric administration group: 0, 5 min, 15 min, 30 min, 1 h, 2 h, 4 h, 6 h, 8 h and 24 h. Before analysis and detection, all samples were stored at -80°C.

[8] = Intragastric administration (10 mg/kg), 10 mg/kg

T1 sequence (Q12809 whole entry): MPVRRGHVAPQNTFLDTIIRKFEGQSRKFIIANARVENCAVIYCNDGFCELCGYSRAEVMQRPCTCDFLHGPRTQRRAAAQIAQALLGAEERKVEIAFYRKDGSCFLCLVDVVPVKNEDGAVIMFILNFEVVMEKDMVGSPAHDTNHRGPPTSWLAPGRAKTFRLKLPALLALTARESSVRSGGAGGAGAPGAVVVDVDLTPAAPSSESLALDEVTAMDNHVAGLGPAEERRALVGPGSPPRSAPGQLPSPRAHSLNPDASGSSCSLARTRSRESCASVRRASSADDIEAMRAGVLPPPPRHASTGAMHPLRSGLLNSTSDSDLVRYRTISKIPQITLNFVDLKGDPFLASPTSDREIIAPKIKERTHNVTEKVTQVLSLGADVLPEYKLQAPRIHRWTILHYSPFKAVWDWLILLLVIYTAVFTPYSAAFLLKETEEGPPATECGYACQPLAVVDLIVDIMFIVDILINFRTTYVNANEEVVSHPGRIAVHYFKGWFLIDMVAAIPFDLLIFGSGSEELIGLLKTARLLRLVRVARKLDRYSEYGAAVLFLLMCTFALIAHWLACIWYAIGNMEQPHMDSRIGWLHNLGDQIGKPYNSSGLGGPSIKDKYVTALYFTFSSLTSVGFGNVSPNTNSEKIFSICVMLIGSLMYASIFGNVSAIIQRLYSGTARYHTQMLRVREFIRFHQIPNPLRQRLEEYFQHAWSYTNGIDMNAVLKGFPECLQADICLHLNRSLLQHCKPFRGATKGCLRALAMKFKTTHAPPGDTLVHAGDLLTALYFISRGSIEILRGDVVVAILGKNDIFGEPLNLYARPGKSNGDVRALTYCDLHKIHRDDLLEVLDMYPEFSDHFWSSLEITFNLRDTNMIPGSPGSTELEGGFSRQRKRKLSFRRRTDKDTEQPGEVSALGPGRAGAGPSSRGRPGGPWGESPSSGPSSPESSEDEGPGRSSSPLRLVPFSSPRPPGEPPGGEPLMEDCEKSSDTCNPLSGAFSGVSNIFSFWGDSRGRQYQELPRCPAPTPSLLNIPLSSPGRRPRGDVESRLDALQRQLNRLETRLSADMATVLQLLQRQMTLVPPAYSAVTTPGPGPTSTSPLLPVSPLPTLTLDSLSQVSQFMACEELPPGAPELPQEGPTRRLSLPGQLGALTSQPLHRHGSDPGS
T2 sequence (Q2M2I8 27-365 limits assumed): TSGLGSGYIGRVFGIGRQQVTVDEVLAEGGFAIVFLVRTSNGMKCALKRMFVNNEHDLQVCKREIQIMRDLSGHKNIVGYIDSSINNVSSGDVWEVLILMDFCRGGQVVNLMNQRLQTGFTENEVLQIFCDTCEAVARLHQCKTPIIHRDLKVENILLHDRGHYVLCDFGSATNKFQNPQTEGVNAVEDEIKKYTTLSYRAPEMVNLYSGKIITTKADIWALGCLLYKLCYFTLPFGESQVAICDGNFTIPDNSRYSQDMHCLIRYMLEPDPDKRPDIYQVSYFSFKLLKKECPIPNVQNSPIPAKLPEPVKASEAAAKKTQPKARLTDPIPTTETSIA

For COC(=O)[C@@]1(O)C[C@H]2O[C@]1(C)n1c3ccccc3c3c4c(c5c6ccccc6n2c5c31)C(=O)NC4 [Compound K252a], the “ErbB4 accumulation in the plasma membrane or in close proximity to the plasma membrane” value (PC12 cells) is given as “increased”, the ErbB4 expression (PC12 cells) is given as “increased” and the neuregulin-1-induced neurite outgrowth (PC12 cells) is given as “potentiates”.

For COc1ncccc1-c1cnn2ccc(N3CCN(C(=O)OC(C)C)CC3)nc12 [LP-935509], the “pain responses in the mouse streptozotocin-induced diabetic neuropathy model” value [1] is listed as “significantly attenuate”, the “pain responses in phase II of the formalin model” value [2] is listed as “significantly attenuate” and the “pain responses in the mouse chronic constriction injury (CCI) model” value [3] is listed as “significantly attenuate”. For the same compound, the “mechanical allodynia induced by SNL” value [4] was “significantly attenuate”.

In the case of CC(O)(CO)C[C@](C)(N)COc1ccc(-c2ccnc(C(F)F)c2)nc1C(F)F (single isomer, unassigned) [Compound 1-2], the “Percentage of drug remaining after 60 min of incubation” value [5] was greater than 99%, the pIC50 (hERG potassium channel) was 4.86 and the pIC50 (AAK1) was no less than 7.70. The clearance ([6]; mouse, Intravenous administration (2.5 mg/kg)) was 57.8 mL/min/kg, the Vd ([6]; mouse, Intravenous administration (2.5 mg/kg), read-out: Vdss) was 10.5 L/kg and the half-life ([6]; mouse, iv, 2.5 mg/kg, Intravenous administration (2.5 mg/kg)) was 2.53 h. The AUC(0-t) ([6]; mouse, iv, 2.5 mg/kg, Intravenous administration (2.5 mg/kg), read-out: AUC0-t) was 630 ng·h/mL, the half-life ([6]; mouse, po, 10 mg/kg, Intragastric administration (10 mg/kg)) was 3.09 h and the AUC(0-t) ([6]; mouse, po, 10 mg/kg, Intragastric administration (10 mg/kg), read-out: AUC0-t) was 3520 ng·h/mL. For the same compound, the AUC(0-t) [7] was 4050 ng·h/mL and the half-life [7] was 4.52 h.

In the case of CC(O)(CO)C[C@](C)(N)COc1ccc(-c2ccnc(C(F)F)c2)nc1C(F)F (single isomer, unassigned) [Compound 1-1], the “Percentage of drug remaining after 60 min of incubation” value [5] was 93.7%, the pIC50 (hERG potassium channel) was 5.17 and the pIC50 (AAK1) was no less than 7.70. It also gave an AUC(0-t) [6, 8] of 4400 ng·h/mL and a T1/2 [6, 8] of 4.82 h.
